Experimental data reported in ChEMBL document CHEMBL1151127, “Studies of Swedish Marine Organisms, Part X. Biologically Active Compounds from the Marine Sponge Geodia baretti” (1988).

Experiments:
Ileum [1] = experiment: Inhibition of electrically-stimulated contraction in guinea pig ileum at 200 ug/ml; assay type: functional; settings: Cavia porcellus
Ileum [2] = experiment: Contractile activity in guinea pig ileum at 200 ug/ml relative to histamine; assay type: functional, Cavia porcellus
Ileum [3] = experiment: Inhibition of electrically-stimulated contraction in guinea pig ileum at 15 ug/ml; assay type: functional; settings: Cavia porcellus
Ileum [4] = experiment: Contractile activity in guinea pig ileum at 15 ug/ml relative to histamine; assay type: functional, Cavia porcellus
Ileum [5] = experiment: Contractile activity in guinea pig ileum at 1200 ug/ml relative to histamine; assay type: functional, Cavia porcellus
Ileum [6] = experiment: Inhibition of electrically-stimulated contraction in guinea pig ileum at 1200 ug/ml; assay type: functional; settings: Cavia porcellus
Ileum [7] = experiment: Contractile activity in guinea pig ileum at 50 ug/ml relative to histamine; assay type: functional, Cavia porcellus
Ileum [8] = experiment: Inhibition of electrically-stimulated contraction in guinea pig ileum at 50 ug/ml; assay type: functional; settings: Cavia porcellus
Ileum [9] = experiment: Contractile activity in guinea pig ileum at 67 ug/ml relative to histamine; assay type: functional, Cavia porcellus
Ileum [10] = experiment: Inhibition of electrically-stimulated contraction in guinea pig ileum at 67 ug/ml; assay type: functional; settings: Cavia porcellus
Ileum [11] = experiment: Inhibition of electrically-stimulated contraction in guinea pig ileum at 232 ug/ml; assay type: functional; settings: Cavia porcellus
Ileum [12] = experiment: Contractile activity in guinea pig ileum at 232 ug/ml relative to histamine; assay type: functional, Cavia porcellus

## O=c1[nH]cnc2c1ncn2[C@@H]1O[C@H](CO)[C@@H](O)[C@H]1O [INOSINE]
Ileum [1]
  inhibition at 200 µg/mL: 23%
Ileum [2]
  Activity: 0%

## N=C(N)NCCC[C@@H]1NC(=O)/C(=C/c2c[nH]c3cc(Br)ccc23)NC1=O [BARETTIN]
Ileum [3]
  inhibition at 15 µg/mL: 62%
Ileum [4]
  Activity: 0%

## Nc1ccn([C@@H]2O[C@H](CO)[C@@H](O)[C@H]2O)c(=O)n1 [CYTIDINE]
Ileum [5]
  Activity: 0%
Ileum [6]
  inhibition at 1200 µg/mL: 0%

## Nc1ncnc2c1ncn2[C@@H]1O[C@H](CO)[C@@H](O)[C@H]1O [ADENOSINE]
Ileum [3]
  inhibition at 15 µg/mL: 85%
Ileum [4]
  Activity: 0%

## Cn1c(=O)ccn([C@H]2C[C@H](O)[C@@H](CO)O2)c1=O
Ileum [7]
  Activity: 0%
Ileum [8]
  inhibition at 50 µg/mL: 0%

## Cn1c(=N)ccn([C@@H]2O[C@H](CO)[C@@H](O)[C@H]2O)c1=O
Ileum [9]
  Activity: 60%
Ileum [10]
  inhibition at 67 µg/mL: 0%

## Nc1ccn([C@H]2C[C@H](O)[C@@H](CO)O2)c(=O)n1 [DOXECITINE]
Ileum [5]
  Activity: 0%
Ileum [6]
  inhibition at 1200 µg/mL: 27%

## Cn1c(=N)ccn([C@H]2C[C@H](O)[C@@H](CO)O2)c1=O
Ileum [11]
  inhibition at 232 µg/mL: 0%
Ileum [12]
  Activity: 60%

## O=c1ccn([C@@H]2O[C@H](CO)[C@@H](O)[C@H]2O)c(=O)[nH]1 [URIDINE]
Ileum [5]
  Activity: 0%
Ileum [6]
  inhibition at 1200 µg/mL: 83%
